The values that follow come from ChEMBL document CHEMBL3769328, “Design and optimization of tricyclic gamma-secretase modulators” (Bioorg Med Chem Lett, 2016).

Activity calls are given as the source filed them. The rule behind the calls is not given here. Bounds are passed on as bounds.

For series [1], the target named is Gamma-secretase. Kind of series: Modulation of gamma secretase in human H4 cells assessed as inhibition of amyloid beta (1 to 42) production. The series is classed as cell-based.
The target in series [2] is Cytochrome P450 3A4 (Homo sapiens, UniProt P08684). The experiment in a line: Inhibition of CYP3A4 (unknown origin) by fluorescence assay.
Sequence of Cytochrome P450 3A4 (P08684 whole entry): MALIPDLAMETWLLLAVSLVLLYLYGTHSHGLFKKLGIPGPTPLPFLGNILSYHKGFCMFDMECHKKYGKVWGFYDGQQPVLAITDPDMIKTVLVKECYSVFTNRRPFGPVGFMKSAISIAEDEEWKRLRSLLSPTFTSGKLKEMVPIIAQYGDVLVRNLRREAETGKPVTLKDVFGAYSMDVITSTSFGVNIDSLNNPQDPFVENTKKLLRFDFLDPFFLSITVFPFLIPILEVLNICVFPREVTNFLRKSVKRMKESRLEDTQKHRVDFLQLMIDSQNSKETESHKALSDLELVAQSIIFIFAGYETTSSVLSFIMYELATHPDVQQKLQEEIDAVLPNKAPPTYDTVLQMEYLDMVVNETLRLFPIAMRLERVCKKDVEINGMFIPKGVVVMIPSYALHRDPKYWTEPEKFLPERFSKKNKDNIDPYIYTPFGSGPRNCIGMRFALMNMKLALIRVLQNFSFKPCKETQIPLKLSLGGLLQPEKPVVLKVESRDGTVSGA
Series [3] deals with Voltage-gated inwardly rectifying potassium channel KCNH2 (Homo sapiens, UniProt Q12809). The experiment in a line: Inhibition of human ERG by thallium flux assay.
Sequence of Voltage-gated inwardly rectifying potassium channel KCNH2 (Q12809 whole entry): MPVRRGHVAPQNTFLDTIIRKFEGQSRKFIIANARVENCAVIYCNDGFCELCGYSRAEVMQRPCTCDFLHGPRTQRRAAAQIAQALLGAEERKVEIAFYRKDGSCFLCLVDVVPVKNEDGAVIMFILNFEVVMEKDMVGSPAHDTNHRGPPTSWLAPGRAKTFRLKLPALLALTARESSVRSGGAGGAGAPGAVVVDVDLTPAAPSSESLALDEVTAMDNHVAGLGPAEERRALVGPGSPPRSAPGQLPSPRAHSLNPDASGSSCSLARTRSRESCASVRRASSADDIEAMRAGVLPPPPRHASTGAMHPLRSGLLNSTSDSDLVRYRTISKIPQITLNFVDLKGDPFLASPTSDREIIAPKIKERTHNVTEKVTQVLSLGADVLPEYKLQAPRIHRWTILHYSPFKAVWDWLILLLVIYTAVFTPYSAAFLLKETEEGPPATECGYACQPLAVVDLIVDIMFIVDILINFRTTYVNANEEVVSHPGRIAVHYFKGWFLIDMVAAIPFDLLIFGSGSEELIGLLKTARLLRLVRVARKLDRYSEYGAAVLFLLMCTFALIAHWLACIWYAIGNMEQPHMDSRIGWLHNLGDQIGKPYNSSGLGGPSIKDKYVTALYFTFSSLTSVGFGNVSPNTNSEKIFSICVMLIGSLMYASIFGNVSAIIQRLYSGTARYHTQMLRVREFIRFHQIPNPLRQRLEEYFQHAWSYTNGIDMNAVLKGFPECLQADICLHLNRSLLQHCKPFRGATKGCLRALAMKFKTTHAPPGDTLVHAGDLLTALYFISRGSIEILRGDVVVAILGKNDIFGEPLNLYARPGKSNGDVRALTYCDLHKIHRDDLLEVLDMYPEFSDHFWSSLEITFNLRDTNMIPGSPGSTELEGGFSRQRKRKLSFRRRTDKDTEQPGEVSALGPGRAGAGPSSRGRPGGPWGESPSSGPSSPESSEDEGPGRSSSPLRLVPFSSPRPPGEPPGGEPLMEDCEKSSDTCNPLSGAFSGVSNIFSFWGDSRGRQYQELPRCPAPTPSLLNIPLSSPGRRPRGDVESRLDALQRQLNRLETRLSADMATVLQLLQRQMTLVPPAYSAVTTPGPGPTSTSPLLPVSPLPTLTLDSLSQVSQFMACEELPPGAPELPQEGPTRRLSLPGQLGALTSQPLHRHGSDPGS
Series [4] relates to Liver microsome. The experiment in a line: Drug metabolism in human liver microsomes. The format is ADME. Background: Liver microsomes are a subcellular fraction often used to study metabolism.
Series [5] can be described thus: Plasma protein binding in human. The series is classed as ADME, cell-free. Particulars: read-out: PPB.
A short description of series [6]: Plasma protein binding in mouse. The series is classed as ADME, cell-free. Conditions: read-out: PPB.
Series [7] is described as follows: Plasma concentration in 3x transgenic Alzheimer's disease mouse model at 1 mg/kg, po measured after 3 hrs. The series is classed as ADME, organism-based. Conditions: 3x transgenic Alzheimer's disease model.
Series [8] in a line: Plasma concentration in 3x transgenic Alzheimer's disease mouse model at 3 mg/kg, po measured after 3 hrs. Conditions: 3x transgenic Alzheimer's disease model. The format is ADME, organism-based.
Series [9] is described as follows: Plasma concentration in 3x transgenic Alzheimer's disease mouse model at 10 mg/kg, po measured after 3 hrs. The series is classed as ADME, organism-based. Particulars: 3x transgenic Alzheimer's disease model.
Series [10] can be described thus: Plasma concentration in 3x transgenic Alzheimer's disease mouse model at 30 mg/kg, po measured after 3 hrs. The format is ADME, organism-based. Conditions: 3x transgenic Alzheimer's disease model.
The nature of series [11]: Plasma concentration in 3x transgenic Alzheimer's disease mouse model at 100 mg/kg, po measured after 3 hrs. The format is ADME, organism-based. Conditions: 3x transgenic Alzheimer's disease model.
Series [12] can be described thus: Total drug level in 3x transgenic Alzheimer's disease mouse brain at 30 mg/kg, po measured after 3 hrs. The series is classed as ADME, organism-based. Particulars: 3x transgenic Alzheimer's disease model, read-out: Drug uptake.
Series [13] deals with Mus musculus. The experiment in a line: Effect on total amyloid beta production in 3x transgenic mouse model of Alzheimer's disease at 1 to 100 mg/kg, po measured after 3 hrs by ELISA. The series is classed as ADME, organism-based. Particulars: in vivo.
Series [14] in a line: Ratio of total drug level in brain to plasma in 3x transgenic mouse model of Alzheimer's disease at 30 mg/kg, po measured after 3 hrs. The format is ADME, organism-based. Particulars: 3x transgenic Alzheimer's disease model, read-out: BPR.
Series [15] has as its system Mus musculus. Kind of series: Anti-alzheimer activity in 3x transgenic mouse model of Alzheimer's disease assessed as amyloid beta (1 to 42) level in brain at 1 mg/kg, po measured after 3 hrs by ELISA relative to control. The series is classed as functional. For orientation: An ELISA detects its analyte on a solid surface through an enzyme-linked reagent.
The subject of series [16] is Mus musculus. The experiment in a line: Anti-alzheimer activity in 3x transgenic mouse model of Alzheimer's disease assessed as amyloid beta (1 to 42) level in brain at 3 mg/kg, po measured after 3 hrs by ELISA relative to control. The series is classed as functional.
For series [17], the system named is Mus musculus. The experiment in a line: Anti-alzheimer activity in 3x transgenic mouse model of Alzheimer's disease assessed as amyloid beta (1 to 42) level in brain at 10 mg/kg, po measured after 3 hrs by ELISA relative to control. The format is functional.
In series [18] the test system is Mus musculus. Kind of series: Anti-alzheimer activity in 3x transgenic mouse model of Alzheimer's disease assessed as amyloid beta (1 to 42) level in brain at 30 mg/kg, po measured after 3 hrs by ELISA relative to control. The series is classed as functional.
In series [19] the test system is Mus musculus. The experiment in a line: Anti-alzheimer activity in 3x transgenic mouse model of Alzheimer's disease assessed as amyloid beta (1 to 42) level in brain at 100 mg/kg, po measured after 3 hrs by ELISA relative to control. The series is classed as functional.
Series [20] has as its target Gamma-secretase. Kind of series: Modulation of gamma secretase in human H4 cells transfected with APP751 SWE clone 8.20 mutant assessed as inhibition of amyloid beta (1 to 42) production after 19 hrs. The format is cell-based.
The species entered for series [21] is Mus musculus. Particulars: Brain, 30 mg/kg.

Regarding `N#Cc1ccc2c(c1)CCc1sc(Cc3ccccc3)nc1N2`, the IC50 in [1] (read-out: IC50) is 1200 nM.
Consider `COc1ccc(Cc2nc3c(n2C)CCc2cc(-c4ccnc(C)c4)ccc2C3=O)cc1`, for which the IC50 came out at 380 nM in series [1] (read-out: IC50) and 300 nM in series [2].
Regarding `Clc1cn(-c2ccc3c(c2)CCc2cn(Cc4ccccc4)nc2N3)cn1`, the IC50 was found to be 40 nM in series [1] (read-out: IC50) and 300 nM in series [2].
On to `Clc1cn(-c2ccc3c(c2)CCc2cnn(Cc4ccccc4)c2N3)cn1`, for which the IC50 result in series [1] is recorded as “Not Active”.
For the molecule `Cc1cc(-c2ccc3c(c2)CCc2sc(Cc4ccc(F)c(F)c4)nc2N3)ccn1`, in series [1] (read-out: IC50), the IC50 was found to be 120 nM.
As to `O=C1Nc2cc(-n3cnc(Cl)c3)ccc2Nc2nc(Cc3ccccc3)ccc21`, the IC50 in series [1] (read-out: IC50) was 190 nM; in series [2], more than 13000 nM.
As for `Cc1cn(-c2ccc3c(c2)CCc2ccc(Cc4ccc(F)cc4)nc2C3=O)cn1`, the figures for the IC50 in [1] (read-out: IC50) and in series [2] were 1000 nM and 300 nM, respectively.
Taken in the same sequence, the figures for `Cc1ncn(-c2ccc3c(c2)NC(=O)c2ccc(Cc4ccccc4)nc2N3)n1` were 460 nM and 2000 nM.
As for `Cc1ncn(-c2ccc3c(c2)CCc2cnn(Cc4ccccc4)c2N3)n1`, the IC50 result in series [1] is given as “Not Active”.
Regarding `Clc1cn(-c2ccc3c(c2)CCc2sc(Cc4ccccc4)nc2N3)cn1`, the IC50 in series [1] (read-out: IC50) was found to be 140 nM.
On the same count and under the same terms, to `Cc1cncn1-c1ccc2c(c1)CCc1sc(Cc3ccc(F)cc3)nc1N2` belongs 1800 nM; to `COc1ccc(Cc2nc3c(n2C)CCc2cc(-n4cnc(C)c4)ccc2C3=O)cc1`, 1100 nM.
Regarding `Cc1ncn(-c2ccc3c(c2)CCc2cn(Cc4ccccc4)nc2N3)n1`, the results for the IC50 in series [1] (read-out: IC50) and in series [2] were 180 nM and 300 nM, respectively.
Consider `Cc1ncn(-c2ccc3c(c2)CCc2sc(Cc4ccccc4)nc2N3)n1`, for which, in [1] (read-out: IC50), the IC50 was 140 nM.
Still for that read-out and setting: to `Cc1cn(-c2ccc3c(c2)CCc2sc(Cc4ccc(F)cc4)nc2N3)cn1` belongs 20 nM.
For the molecule `Cc1cn(-c2ccc3c(c2)CCc2sc(Cc4ccccc4)nc2N3)cn1`, the “inhibition (INH)” value in [3] was “Not Active”. The IC50 in series [1] (read-out: IC50) came to 35 nM; in [2] it was 700 nM. This molecule also yielded a Drug metabolism in [4] of 0.035 nmol/min/mg. Also, the fraction unbound in series [5] and in series [6] was less than 0.002 throughout. The concentration at 3 h in series [7] came to 210 nM; in series [8], 480 nM; in series [9] it was 3.8 µM; in [10], 8 µM; in series [11], 25 µM; in [12], 8.9 µM. Further, the Activity result is given as “Non-toxic” in [13]; 110% in series [15]; 100% in [16]; 70% in series [17]; 60% in series [18]; 50% in [19]. Also, the Kp at 3 h in series [14] was determined as 1.1.
`CC(c1ccccc1)c1ccc2c(n1)Nc1ccc(-n3cnc(Cl)c3)cc1NC2=O` (racemic): the IC50 in series [1] (read-out: IC50) is 200 nM; in series [2], more than 13000 nM.
For the molecule `CNc1nc(Nc2ccc(-n3cncn3)c(OC)c2)nc(-c2ccccc2)n1`, the IC50 in series [20] is 180 nM.
As for `Cc1cn(-c2cc3c(cc2F)Nc2nc(Cc4ccccc4)ccc2C(=O)N3)cn1`, the IC50 in series [1] (read-out: IC50) amounted to 820 nM; in [2], 30 nM.
For `Cc1cc(-c2ccc3c(c2)CCc2sc(Cc4ccccc4)nc2N3)ccn1`, the IC50 in series [1] (read-out: IC50) stood at 50 nM.
Still for that read-out and setting: to `Cc1cc(-c2ccc3c(c2)CCc2sc(Cc4ccc(F)cc4)nc2N3)ccn1` belongs 80 nM.
For the molecule `Cc1cn(-c2ccc3c(c2)NC(=O)c2ccc(Cc4ccccc4)nc2N3)cn1`, the 50% inhibitory concentration (IC50) stood at 50 nM in [1] (read-out: IC50) and 150 nM in series [2]. In addition, the inhibition entry in series [21] was “inactive”.
With `Cc1cn(-c2ccc3c(c2)NC(=O)c2ccc(C(C)c4ccccc4)nc2N3)cn1` (racemic), the IC50 is 100 nM in [1] (read-out: IC50) and 200 nM in series [2].
With `COc1ccc(Cc2nc3c(o2)CCc2cc(-c4ccnc(C)c4)ccc2C3=O)cc1`, the IC50 in series [1] (read-out: IC50) and in [2] was 300 nM in each case.
Take `CNc1nc(Cc2ccccc2)nc(Nc2ccc(-n3cnc(C)c3)c(OC)c2)n1`: the IC50 in [20] is 29 nM.

For orientation: IC50 means the concentration that inhibits the measured activity by half.
